According to publication PMC4195615, “Inhibition Effect of a Custom Peptide on Lung Tumors” (PLoS ONE, 2014):

Legend:
[1] = test system: normal lung cell versus cancerous lung cell; details: general statement, no reference given; cited from earlier work
From the text: IC50 is the chemical concentration that produces 50% cell survival. The selectivity index of a lung cancer drug is a measure of how specific its killing action is to cancer cells. It is the ratio of its IC50 for a normal lung cell to its IC50 for a cancerous lung cell.

[2] = 100 mg/m^2 in a three-week cycle; cited from earlier work
Procedure: Drugs presently in use to combat lung cancers have severe side effects because their toxicity is not sufficiently selective to cancer cells. For example, docetaxel administered at a dose of 100 mg/m^2 in a three-week cycle causes haematological toxicity (86% patients having grade 3 or 4 neutropenia).

[3] = test system: human NCI-H460 cancer cells xenograft; assay: Nude mouse xenograft, post-treatment-only, comparison with docetaxel; details: for Mean tumor volume at week 4: 0.012 mmol/kg i.v. (CB1a 50 mg/kg, docetaxel 10 mg/kg), saline 5,400 mm^3; for Mean tumor volume at week 4 / Mean body weight at week 4 / Mean tumor weight as % of that in saline treated mice: 5 injections per week for 4 weeks; for Body weight course: compared with saline treated mice; for Mean body weight at week 5: data not shown; for Mean tumor weight as % of that in saline treated mice: week 4, sacrificed
MRC-5 normal cells = assay: Cell plate growth study, photographed; type: cell-based, human; details: 50 µM CB1a added after 4 days, photographed after 24 hours, 2×10^3 cells at start
Procedure: (§1) NCI-H460 cancer cells were grown on two cell plates (2×10^3 cells at start in each) – after 4 days, CB1a (50 µM) was added to one and not the other. […] This experiment was repeated but with normal cells. MRC-5 normal cells were grown on two cell plates (2×10^3 cells at start in each) – after 4 days, CB1a (50 µM) was added to one and not the other.
(§2) Photos A and B show without and with CB1a (50 µM), on NCI-H460 cancer cells, respectively. Photos C and D show without and with CB1a (50 µM), on MRC-5 normal cells, respectively. Initial cell concentrations on plates were 2×10^3 cells for all; photos were taken after 5 days incubation; where CB1a was applied it was done so at the end of day 4. Comparing A and B: one can note without CB1a there is significant cellular growth, as to be expected from a cancer cell line; with CB1a there is not, presumably because of a CB1a kill action against cancer cells.

NCI-H460 cancer cells [4] = assay: Cell plate growth study, photographed; type: cell-based, human; details: 50 µM CB1a added after 4 days, photographed after 24 hours, 2×10^3 cells at start
Procedure: as §1, §2

[5] = Pharmacokinetics of CB1a in rat blood by competitive ELISA; type: in vivo; details: Sprague-Dawley rats, 50 mg/kg i.v., competitive ELISA with 5C5H5 antibody
From the text: Using this standard curve, an unknown concentration of CB1a in a test sample can then be found by finding its OD450nm (A/A0) value in an ELISA experiment. […] For our definitive standard curve, we used the one with a dilution rate of 1∶2000 and utilized this dilution rate when assaying test blood samples. We used a primary antibody dilution rate of 1∶5000.
Six […] male Sprague-Dawley rats (230–260 g; sourced from BioLASCO, Yilan, Taiwan) were housed (3 per cage) in a specific pathogen free animal room. The rats were intravenously injected with CB1a peptide (50 mg/kg) and blood samples were then collected from the tail vein of the rats at the following time points: 5, 20, 25, 38.5, 50, 60 and 240 minutes after the CB1a injection (6 samples taken at each of these time points). The blood samples were transferred to heparinized microcentrifuge tubes and centrifuged at 4,000 g for 5 minutes; then frozen for storage at −80°C.
The blood samples were analyzed via a competitive ELISA technique, rather than the more direct ELISA technique described earlier. Blood samples were diluted 100 fold and then mixed with a known concentration of CB1a antibody (2mg/ml in PBST buffer, including 1% BSA). […] The CB1a concentration recorded on the plate is added to the known CB1a concentration that is washed off, bound to the CB1a antibodies, to get the total CB1a concentration. […]

[6] = test system: human NCI-H460 cancer cells xenograft; assay: Nude mouse xenograft, pre-and-post-treatment of CB1a; type: in vivo; details: 50 mg/kg s.c.
Procedure: Afterwards, the animal test experiments were performed.
Six mice were pre-treated with CB1a (50 mg/kg) 3 times in one week prior to them being subcutaneously xenografted with human tumorigenic NCI-H460 lung cancer cells (0.2 ml; 1×10^6 cells/ml). A control was studied in which saline was used instead of CB1a (6 mice in this control group). The dose of CB1a/saline was continued after the xenograft: 5 times per week for 5 weeks. The CB1a/saline injection point was in the dorsolateral neck area and the xenograft cancer cells were transplanted into the abdominal flank area of the mouse (Figure 5A). The distance between these two points is far (∼4 cm) as compared to the length of the mouse (∼6 cm). This distance tested whether CB1a could effectively travel in the blood stream without being destroyed. […] 36 days after the human lung cancer cells were xenografted on to the mouse – the mean volume of the tumor in the CB1a treated mice was just 19.3% of the tumor in the saline treated mice (Figure 5C); the mean weight of the tumor in CB1a treated mice was just 9% of the tumor in saline treated mice (Figure 5D). In other words, the tumor was ∼80% smaller and ∼90% lighter in CB1a treated mice.

HFL1 cells = assay: In vitro toxicity to other normal cells; type: cell-based; details: data not shown
3T3/3T6 tissue cells = assay: In vitro toxicity to other normal cells; type: cell-based; details: data not shown
NCI-H460 cancer cells [7] = assay: Tumor-like spheroid (MCTS) formation, modified hanging drop method; type: cell-based, human; details: NCI-H460, 5×10^2 cells
Procedure: We used non-adhesive, bacterial culture-grade polystyrene Petri dishes. Approximately 5×10^2 NCI-H460 cancer cells (3×10^4 cells/ml) were deposited as a drop on the inner face of lids to 90 mm Petri dishes. These lids were then placed on their dishes, which were filled with 10 ml phosphate-buffered saline (PBS). A monolayer of NCI-H460 lung cancer cells was then de-attached by 0.25% Trypsin-EDTA. These dishes were then incubated at 37 C in a 5% CO2 incubator. This modified “hanging drop” method causes the cancer cells to grow in a tumor-like aggregation; which is called a MCTS. After 3 days incubation, CB1a was applied in different concentrations (5, 15, 30, 45 and 60 µM) to different plates and a photo was then taken of each plate after 36 hours. This methodology investigated the post-treatment of CB1a, after tumor formation. The pre-treatment effect of CB1a, before tumor formation, was also studied. CB1a was applied in different concentrations (5, 15, 30, 45 and 60 µM) to different plates and left for 30 minutes before the 0.25% Trypsin-EDTA de-attachment step. After this step, the plates were incubated for 3 days and 36 hours before being photographed.

[8] = tumor-bearing nude mice, 0.012 mmol/kg i.v., n = 6
[9] = tumor-bearing nude mice, 0.012 mmol/kg i.v., 5 injections per week, n = 6
[10] = tumor-bearing nude mice, 0.012 mmol/kg i.v.

## CC(=O)O[C@@]12CO[C@@H]1C[C@H](O)[C@@]1(C)C(=O)[C@H](O)C3=C(C)[C@@H](OC(=O)[C@H](O)[C@@H](NC(=O)OC(C)(C)C)c4ccccc4)C[C@@](O)([C@@H](OC(=O)c4ccccc4)[C@H]21)C3(C)C [docetaxel, reference compound]
[1]
  Selectivity index (SI) of drugs presently on the market: less than one
[2]
  Patients having grade 3 or 4 neutropenia (haematological toxicity): 86%
[3]; n = 6
  Mean tumor volume at week 4: 3,200 mm^3
[3]; [8]
  Mean body weight at week 4: 25 g
[3]; [9]
  Mean body weight at week 2 (maximum): 27 g
[3]; [10]
  Body weight course: weight loss
  Mean body weight at week 5: 21 g
[3]; 0.012 mmol/kg i.v., n = 6
  Mean tumor weight as % of that in saline treated mice: 73%

## COc1cccc2c1C(=O)c1c(O)c3c(c(O)c1C2=O)C[C@@](O)(C(=O)CO)C[C@@H]3O[C@H]1C[C@H](N)[C@H](O)[C@H](C)O1 [doxorubicin]
[1]
  Selectivity index (SI) of drugs presently on the market: less than one

## H-KWKVFKKIEKKWKVFKKIEKAGPKWKVFKKIEK-OH [CB1a]
MRC-5 normal cells
  Cell number on plate versus plate without CB1a: does not kill these normal cells
NCI-H460 cancer cells [4]
  Cell number on plate versus plate without CB1a: significantly less cells
[5]
  Time for which a CB1a concentration that can kill cancer cells (≥25 µM or ≥105 µg/ml) endures in rat blood: around 25 minutes
[5]; male, rat, iv, tail vein blood 5-240 minutes, n = 6
  half-life: 16.4 min
[6]; 36 days after xenograft, pre-and-post-treatment, n = 6
  Mean tumor volume as % of that in saline treated mice: 19.3%
[6]; day 36, sacrificed, pre-and-post-treatment, n = 6
  Mean tumor weight as % of that in saline treated mice: 9%
[6]; day 36, pre-and-post-treatment
  Tumor lighter than in saline treated mice: ~90%
  Tumor smaller than in saline treated mice: ~80%
[6]; nude mice, 3 times in week before xenograft then 5 times per week for 5 weeks, n = 6
  Deaths during the experiment: None of the mice died
[6]; nude mice, pre-and-post-treatment, n = 6
  Mean body weight compared with saline treated mice: comparable to that of saline treated mice
[3]; n = 6
  Mean tumor volume at week 4: 3,100 mm^3
[3]; [8]
  Mean body weight at week 4: 30.5 g
[3]; [9]
  Mean body weight at the start: 25.5 g
[3]; [10]
  Body weight course: gained weight at the same trajectory as saline treated mice
  Mean body weight at week 5: 32 g
[3]; 0.012 mmol/kg i.v., n = 6
  Mean tumor weight as % of that in saline treated mice: 59%
HFL1 cells
  Killing of normal cells at concentrations that kill lung cancer cells: do not kill
3T3/3T6 tissue cells
  Killing of normal cells at concentrations that kill lung cancer cells: do not kill
NCI-H460 cancer cells [7]; CB1a 5, 15, 30, 45, 60 µM applied after 3 days incubation, photo after 36 hours
  Spheroid formation, post-treatment with CB1a: tumor spheroids can still be observed
NCI-H460 cancer cells [7]; CB1a 5-60 µM applied 30 minutes before de-attachment, higher CB1a concentrations
  Spheroid formation, pre-treatment with CB1a: no spheroids form
